Experimental findings from publication PMC11088877, “AMP-activated protein kinase can be allosterically activated by ADP but AMP remains the key activating ligand” (Biochemical Journal, 2024) are described below.

Common to all, as to type: biochemical
Assay [1] deals with T1, GST-tagged human α2 kinase domain (Homo sapiens, UniProt P54646).
T1 construct: Human GST-tagged α2 kinase domain (1–310); made in house
Put plainly: Inhibition of GST:α2-kinase domain fusion by AMP or ADP. Conditions: for Activation / IC50: α2 kinase domain. From the text:
To confirm that the inhibition of kinase activity by ADP at high concentrations was due to competition with ATP at the catalytic site on the α subunit, we repeated the assays using a glutathione-S-transferase- (GST-) tagged human α2 kinase domain that had been phosphorylated by LKB1. […] These IC50 values were similar to those obtained with the intact heterotrimers from rat liver (Supplementary Table S1).
Figure 3. Inhibition of GST:α2-kinase domain fusion by AMP or ADP. The kinase domain (phosphorylated on Thr172 by the LKB1:STRADα:MO25α complex) was incubated with various concentrations of AMP or ADP as in Figure 1 using [ATP] at 0.2 (A), 1.0 (B) or 5.0 mM (C) and keeping [Mg^2+] in a constant excess of 4.8 mM above [ATP] [19]. Results (mean ± SD, n = 2) were fitted to the equation: Y = Basal-(Basal × X)/(IC50 + X) where Y is the kinase activity, X is the concentration of AMP or ADP, and IC50 is the concentration of AMP or ADP causing half-maximal inhibition. Dashed vertical lines show the estimates of IC50 values, and best-fit values of all parameters used to generate the curves are listed in Supplementary Table S1.
Sources of antibodies were as described: pThr172 (AMPK-α: Cell Signaling Technologies, Danvers, MA, U.S.A., Cat# 2535), AMPK-α2 [22]. Rat liver AMPK was purified as described previously. Plasmid encoding human (His)6-tagged AMPK (α2β2γ1, bacterially expressed) generated as in [23], was a gift from AstraZeneca, Cambridge, U.K. The L129D/V130D (CBS1), V276G/L277G (CBS3) and I312G (CBS4) mutations in the α2β2γ1 complex were generated using the Quikchange II site-directed mutagenesis kit (Agilent Technologies) and confirmed by DNA sequencing. Human GST-tagged α2 kinase domain (1–310), LKB1:STRAD-α:MO25-α complexes, GST-tagged CaMKK2 [26], and PPM1A (PP2Cα) were produced as described. Bacterially expressed heterotrimers were activated by phosphorylation of Thr172 by GST-tagged CaMKK2 in the presence of ATP, and CaMKK2 was subsequently removed by passage through glutathione-Sepharose. Human GST-tagged α2 kinase domain was activated in a similar manner except that human (His)6-tagged LKB1:STRAD-α:MO25-α complex was used and removed after activation via passage through a His-Trap column. Recombinant human 5′-nucleotidase, CD73, Cat # 5795-EN-01, was from R&D systems (Minneapolis, MN, U.S.A.).
AMPK assays measured the transfer of radioactivity from [γ-^33P]ATP to a peptide substrate, which was separated from unreacted ATP by binding to P81 paper. This assay was described previously except that we used [γ-^33P] rather than [γ-^32P]ATP. In some assays (specified in Figure legends) the concentration of ATP was increased from 0.2 to 1 or 5 mM ATP, with MgCl2 concentrations maintained at a constant 4.8 mM excess above the concentration of ATP [19]. Where allosteric activation by AMP or ADP was being studied, we used the SAMS peptide as substrate. For all other assays the AMARA peptide was used.

For assay [2], the target named is T2, human α2β2γ1 complex, CBS1 mutant (L129D/V130D) (Homo sapiens, UniProt P54619+P54646, L129D/V130D).
T2 construct: made in house; host or cells: Escherichia coli
T2 sequence (P54619 whole entry L129D/V130D): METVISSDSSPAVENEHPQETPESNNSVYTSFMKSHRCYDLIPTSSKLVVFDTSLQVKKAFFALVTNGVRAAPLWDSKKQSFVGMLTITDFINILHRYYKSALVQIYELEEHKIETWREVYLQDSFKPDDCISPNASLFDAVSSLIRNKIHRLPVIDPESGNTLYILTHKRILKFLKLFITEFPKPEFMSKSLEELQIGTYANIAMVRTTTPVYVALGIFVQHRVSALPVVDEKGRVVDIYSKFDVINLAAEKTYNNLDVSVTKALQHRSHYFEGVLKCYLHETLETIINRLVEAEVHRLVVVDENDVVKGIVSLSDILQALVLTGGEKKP
T2 sequence (P54646 whole entry): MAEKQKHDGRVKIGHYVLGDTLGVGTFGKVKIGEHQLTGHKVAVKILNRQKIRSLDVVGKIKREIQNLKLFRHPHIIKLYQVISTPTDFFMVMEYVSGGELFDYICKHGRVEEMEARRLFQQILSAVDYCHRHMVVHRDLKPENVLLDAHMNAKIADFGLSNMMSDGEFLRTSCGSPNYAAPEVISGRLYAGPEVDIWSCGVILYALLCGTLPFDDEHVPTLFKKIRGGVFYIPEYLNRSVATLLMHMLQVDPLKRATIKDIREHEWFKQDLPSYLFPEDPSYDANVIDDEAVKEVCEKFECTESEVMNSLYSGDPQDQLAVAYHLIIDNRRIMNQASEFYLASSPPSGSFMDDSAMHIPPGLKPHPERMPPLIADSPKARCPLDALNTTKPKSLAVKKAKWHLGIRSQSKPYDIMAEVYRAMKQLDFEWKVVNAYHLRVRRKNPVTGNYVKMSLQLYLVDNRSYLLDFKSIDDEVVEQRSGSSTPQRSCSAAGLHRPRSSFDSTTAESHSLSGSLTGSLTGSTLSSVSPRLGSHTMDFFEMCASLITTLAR
T2 sequence (O43741 whole entry partner): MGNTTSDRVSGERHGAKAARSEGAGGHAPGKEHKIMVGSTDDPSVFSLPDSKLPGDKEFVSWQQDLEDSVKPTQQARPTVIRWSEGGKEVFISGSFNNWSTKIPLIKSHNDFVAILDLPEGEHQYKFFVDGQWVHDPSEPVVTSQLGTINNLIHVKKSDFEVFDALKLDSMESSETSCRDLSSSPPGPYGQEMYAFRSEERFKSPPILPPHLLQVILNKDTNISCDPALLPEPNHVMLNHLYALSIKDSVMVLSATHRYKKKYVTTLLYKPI
As to the kind of experiment: AMPK inactivation and Thr172 dephosphorylation by PPM1A, CBS1 mutant. Conditions: 300 µM nucleotide, absence of ATP. The procedure: (§1) The relative roles of the three CBS sites in the other two mechanisms of activation of AMPK by AMP or ADP, i.e. promotion of Thr172 phosphorylation by LKB1, and protection against Thr172 dephosphorylation by protein phosphatases, have not been examined previously. As expected, incubation of the α2β2γ1 AMPK complex with a fixed, limiting amount of purified LKB1:STRADα:MO25α complex in the presence of 200 µM Mg.ATP^2− caused a large degree of activation (Figure 5A) and phosphorylation (Figure 5B) of AMPK (unphosphorylated α2β2γ1 complex), which were stimulated more than 2-fold by 300 µM AMP and 1.6-fold by 300 µM ADP.
(§2) Figure 6. Effects of AMP or ADP on AMPK inactivation and Thr172 dephosphorylation by PP2Cα (PPM1A). Human α2β2γ1 complexes (WT, or with L129D/V130D, V276G/L277G or I312G mutations affecting CBS1, CBS3 or CBS4 respectively), all phosphorylated on Thr172, were incubated with a fixed concentration of PP2Cα (PPM1A) in the presence or absence of AMP or ADP (both 300 µM) as described in the Materials and methods section. After the incubation, aliquots were withdrawn for (A) AMPK assay or (B) Western blots. […] For (B), due to a limit on the number of lanes that could be run on one gel, single replicates from the triplicate assays were analysed. […]

In assay [3] the target is T3, phosphorylated human α2β2γ1 complex (WT) (Homo sapiens, UniProt P54619+P54646).
T3 construct: made in house; host or cells: Escherichia coli
T3 sequence (P54619 whole entry): as the sequence (P54619 whole entry L129D/V130D) above, with D129L, D130V counted along it
T3 sequence (P54646 whole entry): as the sequence (P54646 whole entry) above
T3 sequence (O43741 whole entry partner): as the sequence (O43741 whole entry partner) above
As to the kind of experiment: AMPK inactivation and Thr172 dephosphorylation by PP2Cα (PPM1A), WT. The settings on record: 300 µM nucleotide, absence of ATP. On the procedure:
as §1, §2

Assay [4] concerns the target T4, human α2β2γ1 complex, CBS3 mutant (V276G/L277G) (Homo sapiens, UniProt P54619+P54646, L277G/V276G).
T4 construct: made in house; host or cells: Escherichia coli
Put plainly: AMPK inactivation and Thr172 dephosphorylation by PPM1A, CBS3 mutant. The settings on record: 300 µM nucleotide, absence of ATP. The procedure:
as §1, §2

The structures appear in SMILES notation. Several values for one entry are separate records, joined by “and”; a condition that tells them apart may be missing. Equal entries are not always repeated.

T1 sequence (P54646 1-310): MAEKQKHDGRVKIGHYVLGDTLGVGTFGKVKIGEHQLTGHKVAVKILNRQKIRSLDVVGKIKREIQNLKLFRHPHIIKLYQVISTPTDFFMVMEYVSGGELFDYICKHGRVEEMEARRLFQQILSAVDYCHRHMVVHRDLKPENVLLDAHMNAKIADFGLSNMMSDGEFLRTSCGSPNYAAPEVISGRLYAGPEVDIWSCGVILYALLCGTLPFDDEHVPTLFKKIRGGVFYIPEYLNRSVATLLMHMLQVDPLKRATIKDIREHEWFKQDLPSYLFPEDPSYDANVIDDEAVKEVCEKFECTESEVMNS
T4 sequence (P54619 whole entry V276G/L277G): as the sequence (P54619 whole entry L129D/V130D) above, with D129L, D130V, V276G, L277G counted along it
T4 sequence (P54646 whole entry): as the sequence (P54646 whole entry) above
T4 sequence (O43741 whole entry partner): as the sequence (O43741 whole entry partner) above

The IC50 is the concentration at which inhibition is half-maximal. Higher therefore signals a need for much substance. For the molecule `Nc1ncnc2c1ncn2[C@@H]1O[C@H](COP(=O)(O)OP(=O)(O)O)[C@@H](O)[C@H]1O` [ADP], the Activation result in assay [1] (0.2 mM ATP), in assay [1] (1.0 mM ATP) and in assay [1] (5.0 mM ATP) was “none” throughout. The IC50 stood at 0.67 mM in assay [1] (0.2 mM ATP), 1.6 mM in assay [1] (1.0 mM ATP) and 3.5 mM in assay [1] (5.0 mM ATP). The “protective effect of nucleotide against PPM1A in the mutant” value in assay [2] was “unaffected”; in assay [4], “almost completely abolished”. In assay [3], the “inactivation and dephosphorylation of AMPK by PPM1A in the presence of nucleotide” value is listed as “greatly reduced”.
In the case of `Nc1ncnc2c1ncn2[C@@H]1O[C@H](COP(=O)(O)O)[C@@H](O)[C@H]1O` [AMP], the “IC50 of AMP relative to IC50 of ADP” value in assay [1] (GST-α2 kinase domain, 0.2 to 5 mM ATP) is reported as approximately 3 fold. Also, the Activation entry in assay [1] (0.2 mM ATP), in assay [1] (1.0 mM ATP) and in assay [1] (5.0 mM ATP) was “none” throughout. For the same molecule, the IC50 in assay [1] (0.2 mM ATP) is 2.2 mM; in assay [1] (1.0 mM ATP), 5.4 mM; in assay [1] (5.0 mM ATP), 13 mM and 13.4 mM. The “protective effect of nucleotide against PPM1A in the mutant” value is “unaffected” in assay [2] and “almost completely abolished” in assay [4]. For the same molecule, in assay [3], the “inactivation and dephosphorylation of AMPK by PPM1A in the presence of nucleotide” value was “greatly reduced”.
